From US11142554B2 (MASSACHUSETTS INSTITUTE OF TECHNOLOGY, priority 2015, dated 2021)
Positions of bridges follow the written chain, without caps; N, C: chain ends. Non-standard residues stand in square brackets, D forms with d. Residues, ends and D or L forms follow the SMILES beside them. S5 = C=CCCC[C@](C)(N)C(=O)O; Nle = CCCC[C@H](N)C(=O)O

Columns and labels:
[1] = target: Bcl-w (Homo sapiens, UniProt Q92843); test: receptor | Bcl-w
[2] = target: T1, Bcl-2 (Homo sapiens, UniProt P10415); test: receptor | Bcl-2
Target sequence in this assay (P10415 whole entry, looked up): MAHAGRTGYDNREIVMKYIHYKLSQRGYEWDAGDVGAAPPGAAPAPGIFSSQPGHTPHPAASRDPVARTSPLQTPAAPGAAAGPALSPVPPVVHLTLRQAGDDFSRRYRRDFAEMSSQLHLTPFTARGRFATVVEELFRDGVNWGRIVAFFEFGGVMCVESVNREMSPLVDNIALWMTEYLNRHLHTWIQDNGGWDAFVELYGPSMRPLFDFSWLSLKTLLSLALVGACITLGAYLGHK

[3] = target: T2, Mcl-1 (Homo sapiens, UniProt Q07820); test: receptor | Mcl-1; conditions: read-out: receptor | Mcl-1
Target sequence in this assay (Q07820 whole entry, looked up): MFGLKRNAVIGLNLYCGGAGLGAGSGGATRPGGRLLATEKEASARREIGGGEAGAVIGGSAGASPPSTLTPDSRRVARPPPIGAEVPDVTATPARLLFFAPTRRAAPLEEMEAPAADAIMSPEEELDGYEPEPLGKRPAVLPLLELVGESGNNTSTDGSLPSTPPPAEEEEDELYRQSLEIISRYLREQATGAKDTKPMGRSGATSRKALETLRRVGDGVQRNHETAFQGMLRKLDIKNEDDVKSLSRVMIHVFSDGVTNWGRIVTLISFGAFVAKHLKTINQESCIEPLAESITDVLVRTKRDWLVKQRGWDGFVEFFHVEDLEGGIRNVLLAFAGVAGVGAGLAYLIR

[4] = target: Bfl-1 (Homo sapiens, UniProt Q16548); test: receptor | Bfl-1
[5] = target: T3, Bcl-xL (Homo sapiens, UniProt Q07817); test: receptor | Bcl-xL
Target sequence in this assay (Q07817 whole entry, looked up): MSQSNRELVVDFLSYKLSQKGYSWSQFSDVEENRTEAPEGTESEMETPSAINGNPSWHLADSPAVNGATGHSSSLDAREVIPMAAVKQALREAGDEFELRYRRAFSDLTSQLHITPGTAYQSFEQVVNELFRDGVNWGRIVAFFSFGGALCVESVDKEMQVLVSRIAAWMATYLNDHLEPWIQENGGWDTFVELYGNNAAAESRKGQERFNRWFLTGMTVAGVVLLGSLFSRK

[6] = target: T3, Bcl-xL; test: Fluorescence anisotropy direct binding of N-terminal fluorescein peptides
Target sequence in this assay (Q07817 whole entry): as the sequence (Q07817 whole entry, looked up) above

[7] = tested on: MDA-MB-231 cells
Procedure: (§1) A whole-cell BH3 profiling assay was used to test the specificity of our Mcl-1-binding peptides in several cell lines with differing dependencies on Bcl-2, Mcl-1, Bcl-xL, or Bfl-1. In this assay, permeabilized cells were treated with increasing doses of BH3 peptides, and mitochondrial outer membrane permeabilization (MOMP) was monitored using the dye JC-1 (see below). Mcl-1/Myc 2640 is an engineered murine leukemia cell line overexpressing murine Mcl-1 and Myc, and Bcl-2/Myc 2924 is a similarly engineered cell line overexpressing human Bcl-2.
(§2) Assay plates were produced by serial dilution of each peptide from 200 μM to 0.2 nM using 10-fold dilutions in DTEB (Derived from Trehalose Experimental Buffer: 135 mM trehalose, 50 mM KCl, 20 μM EDTA, 20 μM EGTA, 0.1% BSA, 5 mM succinate, 10 mM HEPES-KOH pH 7.5) containing 0.005% w/v digitonin, 10 mM 2-mercaptoethanol, 2 μM JC-1, and 20 mg mL-1 oligomycin. Triplicate wells for each peptide were made for each cell line by adding 15 μL of the peptide dilutions to each well of a black, untreated 384-well plate. Control wells containing no peptide or 20 μM FCCP (carbonyl cyanide-4(trifluoromethoxy) phenylhydrazone, a chemical uncoupler of oxidative phosphorylation) were included for zero and complete depolarization, respectively. Multiple plates were produced from the same stock and frozen at −80 ° C. for later use. Frozen plates were brought to RT prior to use, cells were suspended in DTEB at a density of 1.34×10^6 cells/mL, and 15 μL of cell suspension was added to each well of the dilution series to yield wells ranging from 0.1 nM to 100 μM peptide and 20000 cells/well. Fluorescence of JC-1 aggregates was measured at 590 nm with 545 nm excitation on a Tecan Safire2 at 5 min intervals for 3 h. The area under each signal-vs-time curve was calculated and normalized to the untreated and FCCP values to produce the percent depolarization. Curves were plotted as the log [peptide] vs percent depolarization, with sigmoidal dose—response curves fitted using Graphpad PRISM 6.

[8] = tested on: Bcl-2/Myc 2924 cells
Procedure: as §1, §2

[9] = tested on: Pfeiffer cells; conditions: for depolarization response (in words): Pfeiffer
Procedure: as §1, §2

[10] = tested on: Mcl-1/Myc 2640 cells
Procedure: as §1, §2

[11] = target: T4, Bcl-w (Homo sapiens, UniProt Q92843); test: Fluorescence anisotropy direct binding of N-terminal fluorescein peptides
T4 sequence (Q92843 1-193): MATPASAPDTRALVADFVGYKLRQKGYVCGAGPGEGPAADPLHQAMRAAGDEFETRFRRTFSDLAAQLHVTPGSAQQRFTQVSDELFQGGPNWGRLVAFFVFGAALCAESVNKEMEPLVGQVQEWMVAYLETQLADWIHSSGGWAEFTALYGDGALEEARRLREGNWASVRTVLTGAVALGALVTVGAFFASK

[12] = target: T5, Bfl-1 (Homo sapiens, UniProt Q16548); test: as above
T5 sequence (Q16548 1-175): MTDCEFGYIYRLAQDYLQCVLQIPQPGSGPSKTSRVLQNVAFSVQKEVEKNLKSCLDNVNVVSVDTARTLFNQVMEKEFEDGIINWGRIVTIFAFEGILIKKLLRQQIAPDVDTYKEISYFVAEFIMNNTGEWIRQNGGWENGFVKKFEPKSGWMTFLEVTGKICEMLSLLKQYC

[13] = target: T1, Bcl-2; test: as above
Target sequence in this assay (P10415 whole entry): as the sequence (P10415 whole entry, looked up) above

[14] = tested on: MEF cells; test: Lactate dehydrogenase (LDH) release assay, non-specific cell lysis; assay type: cell-based
Description: FIG. 5|Results of studies assessing non-specific cell-lysis by internally cross-linked peptides. Lactate dehydrogenase release assays (LDH) identified membrane-disruptive peptides 3 (SEQ ID NO:9) and 7 (SEQ ID NO:7); tested in MEF cells. Peptides 7, 10, 3, and 11-20 are SEQ ID NOs: 7, 8, 9, and 10-19 respectively.
Additional studies examined the non-specific cell lysis activity of peptide 3 (SEQ ID NO:9) (M1 SAHBd) and certain sequence variants of peptide 3 (SEQ ID NO:9) (M1 SAHBd).

[15] = target: T2, Mcl-1; test: IC50 (nM)
Description: Table printed on a drawing sheet, FIG. 8
Head of the field: IC50 (nM)
The patent's description of the figure: FIG. 8|Results of studies assessing cell permeability of various internally cross-linked peptides. Stapled peptides based on MB2 lead peptide are shown. […] MB2 (SEQ ID NO:23); B1 SAHBa (SEQ ID NO:24); B1 SAHBf (SEQ ID NO:25); B1 DAHBd (SEQ ID NO:26); B2 SAHBd (SEQ ID NO:27); B3 SAHBd (SEQ ID NO:28); B1 SAHBg (SEQ ID NO:29); B1 SAHBh (SEQ ID NO:30).

[16] = target: T2, Mcl-1; test: Fluorescence anisotropy direct binding of N-terminal fluorescein peptides; conditions: 23-residue peptide with N-terminal fluorescein
Target sequence in this assay (Q07820 whole entry): as the sequence (Q07820 whole entry, looked up) above

[17] = parent: Bim for Bim_A2eT, Bim_A2eT for its point mutants, A12/B3 for MS1/MS2

With `CC[C@H](C)[C@H](NC(=O)[C@H](CCCNC(=N)N)NC(=O)[C@H](CCCNC(=N)N)NC(=O)[C@H](CC(C)C)NC(=O)CNC(=O)[C@H](CCC(N)=O)NC(=O)[C@@H](NC(=O)[C@@H](NC(=O)[C@H](Cc1c[nH]c2ccccc12)NC(=O)[C@@H](NC(=O)[C@H](CCC(=O)O)NC(=O)[C@@H]1CCCN1C(=O)[C@@H](N)CCCNC(=N)N)[C@@H](C)CC)[C@@H](C)CC)[C@@H](C)O)C(=O)NCC(=O)N[C@@H](CC(=O)O)C(=O)N[C@@H](CCC(=O)O)C(=O)N[C@@H](Cc1ccccc1)C(=O)N[C@@H](CC(N)=O)C(=O)N[C@@H](C)C(=O)N[C@@H](Cc1ccc(O)cc1)C(=O)N[C@@H](Cc1ccc(O)cc1)C(=O)N[C@@H](C)C(=O)N[C@@H](CCCNC(=N)N)C(N)=O` [Bim_A2eT_E2gG] the Kd [1] was 94 ± 36 nM, the Kd [2] was 150 ± 27 nM and the Kd [3] was 1.6 ± 0.57 nM. It also gave a Kd [4] of 250 ± 63 nM and a Kd [5] of 37 ± 7 nM.
With `CC[C@H](C)[C@H](NC(=O)[C@H](CCC(=O)O)NC(=O)[C@H](CC(=O)O)NC(=O)CNC(=O)[C@H](CC(C)C)NC(=O)[C@H](CCCNC(=N)N)NC(=O)[C@H](CCC(N)=O)NC(=O)[C@H](CC(C)C)NC(=O)[C@H](CO)NC(=O)[C@H](CCC(N)=O)NC(=O)[C@@H](NC(=O)[C@H](CC(C)C)NC(=O)[C@H](Cc1c[nH]c2ccccc12)NC(=O)[C@@H](NC(=O)[C@H](CCC(=O)O)NC(=O)[C@@H]1CCCN1C(=O)[C@H](CCCNC(=N)N)NC(C)=O)[C@@H](C)CC)[C@@H](C)O)C(=O)N[C@@H](CC(N)=O)C(=O)N[C@@H](C)C(=O)N[C@@H](Cc1ccc(O)cc1)C(=O)N[C@@H](Cc1ccc(O)cc1)C(=O)N[C@@H](C)C(=O)N[C@@H](CCCNC(=N)N)C(N)=O` [MS2] the “binding affinity to Bcl-xL (in words)” value [6] was “micromolar affinity”, the “reduction in Bcl-xL binding relative to the peptide without the mutation” value [6, 17] was ~100 fold and the EC50 [7] was > 100000 nM. The EC50 [8] was > 100000 nM, the EC50 [9] was > 100000 nM and the EC50 [10] was 700 nM. The “binding affinity to Bcl-w (in words)” value [11] was “hundred-nanomolar range”, the “reduction in Bcl-w binding relative to the peptide without the mutation” value [11, 17] was ~10 fold and the “binding affinity to Bfl-1 (in words)” value [12] was “micromolar affinity”. The “reduction in Bfl-1 binding relative to the peptide without the mutation” value [12, 17] was ~100 fold, the “binding affinity to Bcl-2 (in words)” value [13] was “micromolar affinity” and the “reduction in Bcl-2 binding relative to the peptide without the mutation” value [13, 17] was ~100 fold.
In the case of `CC[C@H](C)[C@H](NC(=O)[C@H](CCC(=O)O)NC(=O)[C@H](CC(=O)O)NC(=O)CNC(=O)[C@H](CC(C)C)NC(=O)[C@H](CCCNC(=N)N)NC(=O)[C@H](CCC(N)=O)NC(=O)[C@H](CC(C)C)NC(=O)[C@H](Cc1c[nH]cn1)NC(=O)[C@H](CCC(N)=O)NC(=O)[C@@H](NC(=O)[C@H](CC(C)C)NC(=O)[C@H](Cc1c[nH]c2ccccc12)NC(=O)[C@@H](NC(=O)[C@H](CCC(=O)O)NC(=O)[C@@H]1CCCN1C(=O)[C@H](CCCNC(=N)N)NC(C)=O)[C@@H](C)CC)[C@@H](C)O)C(=O)N[C@@H](CC(N)=O)C(=O)N[C@@H](C)C(=O)N[C@@H](Cc1ccc(O)cc1)C(=O)N[C@@H](Cc1ccc(O)cc1)C(=O)N[C@@H](C)C(=O)N[C@@H](CCCNC(=N)N)C(N)=O` [MS3], the “binding affinity to Bcl-xL (in words)” value [6] is reported as “micromolar affinity”, the “depolarization response (in words)” value [9] is reported as “stronger response in Pfeiffer than MS1 or MS2” and the “binding affinity to Bcl-w (in words)” value [11] is reported as “several-hundred nanomolar affinity”. For the same compound, the “binding affinity to Bfl-1 (in words)” value [12] was “several-hundred nanomolar affinity” and the “binding affinity to Bcl-2 (in words)” value [13] was “micromolar affinity”.
`CCCC[C@H](NC(=O)[C@H](Cc1c[nH]c2ccccc12)NC(=O)[C@@H](NC(C)=O)[C@@H](C)CC)C(=O)N[C@H](C(=O)N[C@@H](CCC(N)=O)C(=O)NCC(=O)N[C@@H](CC(C)C)C(=O)N[C@@H](CCCNC(=N)N)C(=O)N[C@@]1(C)CCCC=CCCC[C@@](C)(C(=O)N[C@H](C(=O)N[C@@H](CC(N)=O)C(=O)N[C@@H](C)C(=O)N[C@@H](Cc2ccc(O)cc2)C(=O)N[C@@H](Cc2ccc(O)cc2)C(=O)N[C@@H](C)C(=O)N[C@@H](CCCNC(=N)N)C(=O)N[C@@H](CCCNC(=N)N)C(N)=O)[C@@H](C)CC)NC(=O)[C@H](CC(=O)O)NC(=O)CNC(=O)[C@H](CC(C)C)NC1=O)[C@@H](C)O` [peptide 7, IWNleTQGLRXLGDXINAYYARR] (Ac-IW[Nle]TQGLR[S5]LGD[S5]INAYYARR-NH2; staple 9-13; N-terminus assumed) was tested, and the “LDH release, membrane disruption (in words)” value [14] was “membrane-disruptive”.
With “IWFAQEIDRIGDEVNAYYARR (See specification as filed for detailed description of substitutions and preferred embodiments) [B1, native, non-stapled B1 peptide]” the IC50 [15] was 90 nM.
For RPEIWITQGLRRIGDEFNAYYAR [Bim_A2eT_E2gG], the “depolarization response (in words)” value ([7]; MDA-MB-231) was “depolarization response intermediate to that of Bim and MS1”, the “depolarization response (in words)” value ([8]; Bcl-2/Myc 2924) was “depolarization response intermediate to that of Bim and MS1” and the “depolarization response (in words)” value [9] was “depolarization response intermediate to that of Bim and MS1”. For the same compound, the “depolarization response (in words)” value ([10]; Mcl-1/Myc 2640) was “strong depolarization response”.
With “RPEIWLGQSLQRLGDEINAYYAR [B3, Bim-BH3 variant clone from yeast surface display library]” the “binding preference among KSBcl-2 and five human Bcl-2 family proteins” value [16] was “bound to KSBci-2 and Mcl-1 in preference to Bcl-2, Bfl-1, Bcl-w, and to a lesser extent Bcl-xL”.
In the case of “RPEIWMGQGLRRLGDEINAYYAR [A12, Bim-BH3 variant clone from yeast surface display library]”, the “binding preference among KSBcl-2 and five human Bcl-2 family proteins” value [16] is reported as “bound to KSBci-2 and Mcl-1 in preference to Bcl-2, Bfl-1, Bcl-w, and to a lesser extent Bcl-xL”.
